Legend:
[1] = system: Covid-19; conditions: human, in vivo; cited from earlier work
[2] = system: wild type MEFs; assay: Proliferation rate (population doubling level) of wild type MEFs; format: cell-based, mouse
Description: (§1) In the step of determining cells' proliferation rate and the optimal concentration of molecules, the primary mouse embryonic fibroblasts (MEFs) at passage 3 were counted by using LUNA-II Automated Cell Counter. 1.0×10^5 cells were seeded to a well of 6-well plate. The cells were treated with DMSO as control, 10 μM or 50 μM CBD.
(§2) Referring to FIG. 2, after 4-day and 8-day treatment, the cells were counted again using automated cell counter. The population doubling level (PDL), which reflects the proliferation rate of cells, was calculated by the formula: n=3.32 (log UCY−log I)+X, where n=the PDL number, UCY=the cell yield at that time point, I=the initial cell number, and X=the doubling level of the cells used to initiate the subculture being quantitated.

[3] = system: Lamin A 609 MEFs; assay: Proliferation rate (population doubling level) of Lamin A 609 MEFs; format: cell-based, mouse
Description: as §1, §2

[4] = system: TRIB3; assay: RNA sequencing of TRIB3 expression in wild type MEFs; format: cell-based, mouse; conditions: wild type MEFs receiving CBD treatment
Description: (§3) RNA sequencing is carried out wherein the RNA samples were extracted using TRIzol and kept in 75% ethanol in diethylpyrocarbonate (DEPC) water at −20° C. For each condition, two biological replicates were prepared for RNA sequencing. The RNA samples were dissolved in DEPC water and carried out quality control analysis. The RNA quantitation was done using Nanodrop™ and Agilent® 2100 Bioanalyzer. The RNA integrity was measured using Agilent® 2100 Bioanalyzer. The RNA purity was measured using agarose gel electrophoresis and Agilent® 2100 Bioanalyzer.
(§4) The samples that had concentration over 50 ng/μl for volume over 20 μl, RIN value over 6.3, and OD260/280 value over 2.0 were considered to pass the quality control analysis and were used for RNA sequencing. Illumina sequencing system was used for paired-end reads of read lengths PE150. 6 GB of raw data was acquired from each sample. […]
(§5) In the step of RNA sequencing, the RNA samples were extracted using TRIzol and kept in 75% ethanol in diethylpyrocarbonate (DEPC) water at −20° C. […] The RNA quantitation was done using Nanodrop™ and Agilent® 2100 Bioanalyzer. The RNA integrity was measured using Agilent® 2100 Bioanalyzer. The RNA purity was measured using agarose gel electrophoresis and Agilent® 2100 Bioanalyzer. […]

[5] = system: TRIB3; assay: RNA sequencing of TRIB3 expression in Lamin A 609 MEFs; format: cell-based, mouse; conditions: premature aging Lamin A 609 MEFs, CBD treatment
Description: as §3, §4, §5

[6] = system: nCoV virus; assay: nCoV infection of Huh7 cells, qPCR of viral gene copy number; format: cell-based
Description: (§6) To examine CBD inhibitory effects on nCoV infection, Huh7 cells were chosen. 2.0×10^5 cells/well of Huh7 cells were seeded to 24-well plate. The Huh7 cells were treated with DMSO as control, 2.5 μM, 5 μM or 10 μM CBD for 1 hour. The Huh7 cells were then infected with 0.01 MOI of nCoV virus for 1 hour. The inoculum was discarded and the plate was washed with 1 mL PBS twice. The Huh7 cells were then cultured in DMEM/F-12 and treated with DMSO as control, 2.5 μM, 5 μM or 10 μM CBD. After 2, 24 and 48 hours after infection, the supernatant and cell lysate were collected for qPCR analysis for determination of viral gene copy number.
as §6, with “In the step of examining CBD” for “To examine CBD”, “nCoV infection in” for “nCoV infection,”, “Huh7 cells,” for “Huh7 cells were chosen.”

[7] = system: SARS-Cov-2 pseudovirus; assay: Luciferase assay of SARS-Cov-2 pseudovirus infection of Caco2 cells; format: cell-based
[8] = system: Caco-2 cells; assay: Proliferation rate (PDL) of Caco-2 cells; format: cell-based, human; conditions: 5 μM CBD
Description: Referring to FIG. 8, which shown the proliferation rate of Caco-2 cells with CBD treatment. We have compared the population doubling level (PDL) of Caco-2 cells with CBD treatment at four different concentration, namely, 0 μM CBD, 5 μM CBD, 10 μM CBD, and 20 μM CBD. […] Therefore, the COVID-19 virus suppression effect observed in FIG. 7 was not caused by toxicity of CBD.

[9] = system: Caco2 cells; assay: KI67 expression in Caco2 cells; format: cell-based, human; conditions: 5 μM CBD
Description: Referring to FIG. 9, to confirm that the COVID-19 virus suppression effect observed in FIG. 7 was not caused by toxicity of CBD, we have analyzed the expression of KI67 with CBD treatment at the concentration of 5 μM CBD. […] It is confirmed that the COVID-19 virus suppression effect observed in FIG. 7 was not caused by toxicity of CBD.

[10] = system: TRIB3; assay: TRIB3 expression level in Caco-2 cells (FIG. 10); format: cell-based, human; conditions: Caco2 cells, CBD treatment (FIG. 10)
From the text: (§7) Referring to FIG. 10, we have further analyzed the mechanism of CBD treatment on Caco-2 cells by comparing the expression level of TRIB3 and AFT5 in Caco-2 cells by the CBD treatment. […] Similarly, ATF5 was also identified by the RNA sequencing results and it is closely associated with TRIB3.

[11] = system: ATF5; assay: ATF5 expression level in Caco-2 cells (FIG. 10); format: cell-based, human; conditions: Caco2 cells, CBD treatment (FIG. 10)
From the text: as §7

[12] = system: TRIB3; assay: TRIB3 expression in Caco2 cells by immunofluorescence staining (FIG. 11); format: cell-based, human; conditions: 5 μM CBD (FIG. 11)
From the text: (§8) Referring to FIG. 11, we have further analyzed the mechanism of CBD treatment on Caco-2 cells by comparing the expression level of TRIB3 and AFT5 in Caco2 cells by the CBD treatment. Compared to FIG. 10, we have measured the expression of TRIB3 and AFT5 by immunofluorescence staining.

[13] = system: ATF5; assay: ATF5 expression in Caco2 cells by immunofluorescence staining (FIG. 11); format: cell-based, human; conditions: 5 μM CBD (FIG. 11)
From the text: as §8

[14] = system: SARS-CoV-2; assay: qPCR of viral gene copy in SARS-CoV-2 infected golden hamster; format: in vivo
From the text: Referring to FIG. 12, we tested the CBD's anti-COVID-19 effects in nasal turbinate of golden hamster by qPCR analysis of viral gene copy in nasal turbinate of SARS-CoV-2 infected golden hamster upon CBD treatment.

[15] = system: lung fibrosis; assay: Masson Trichrome staining of Covid-19 infected golden hamster lung; format: in vivo; conditions: lung of Covid-19 infected golden hamster, compared to control
From the text: Referring to FIG. 14, we have further tested CBD's anti-COVID-19 effects by analysis of Masson Trichrome staining of Covid-19 infected golden hamster lung treated with control or CBD.

[16] = system: LMNA^G609G/G609G mice; assay: CBD treatment in LMNA G609G/G609G mice (health span); format: in vivo, mouse; conditions: IP twice a week
Description: CBD was dissolved in 5% DMSO and 5% polyethylene glycol (PEG) in sterile saline and stored at −80° C. for up to 1 month. 2 months old LMNA^G609G/G609G mice were selected used. The mice then received an intraperitoneal injection (IP) twice a week until they reached the humane point.
In step of CBD treating in mice, 2 months old LMNA^G609G/G609G mice were selected and used. They received an intraperitoneal injection (IP) twice a week until they reached the humane point. Different dosages were used for the injection; 50 mg/kg of CBD was identified as the optimal dosage with the greatest extend in health span of the treated mice. CBD was dissolved in 5% DMSO and 5% polyethylene glycol (PEG) in sterile saline and stored at −80° C. for up to 1 month.

Compound: Ivermectin
- efficacy in treating COVID-19 [1]: not conclusive

Compound: Lopinavir-ritonavir
- efficacy in treating COVID-19 [1]: not conclusive

Compound: NC(=O)c1nc(F)c[nH]c1=O [Favipiravir]
- efficacy in treating COVID-19 [1]: not conclusive

Compound: C=C(C)[C@@H]1CCC(C)=C[C@H]1c1c(O)cc(CCCCC)cc1O [CBD, Cannabidiol]
- population doubling level (PDL) ([2]; high dosage 50 μM CBD): significantly decreased
- population doubling level (PDL) ([2]; optimal dosage 10 μM CBD): significantly increased
- population doubling level (PDL) ([3]; high dosage 50 μM CBD): significantly decreased
- population doubling level (PDL) ([3]; optimal dosage 10 μM CBD): significantly increased
- TRIB3 expression (fpkm, RNA sequencing) [4]: upregulated
- expression levels of TRIB3 (RNA sequencing) [5]: increase
- nCoV virus infection (viral gene copy number in cell lysate and supernatant) ([6]; Huh7 cells, 2.5, 5 or 10 μM CBD, 0.01 MOI, 2, 24 and 48 hours after infection): inhibited
- optimal dosage of CBD ([6]; Huh7 cells, inhibition of nCoV infection): 5 µM
- reduction of SARS-Cov-2 pseudovirus infection [7]: 72%
- proliferation of Caco-2 cells shown by population doubling level (PDL) [8]: didn't affect proliferation
- proliferation of Caco2 cells shown by KI67 [9]: didn't affect proliferation
- expression level of TRIB3 [10]: significantly upregulate
- expression level of ATF5 [11]: significantly upregulate
- TRIB3 level of expression, immunofluorescence staining [12]: increased
- ATF5 level of expression, immunofluorescence staining [13]: increased
- SARS-Cov-2 infection (viral gene copy) in lung ([14]; lung): suppress
- SARS-CoV-2 infection (viral gene copy) in nasal turbinate ([14]; nasal turbinate): reduced
- area and intensity of blue stain (fibrosis), Masson Trichrome staining [15]: significantly lowered
- optimal dosage with the greatest extend in health span [16]: 50 mg/kg
